The source of these data is ChEMBL document CHEMBL3259629, “Discovery and optimization of piperidyl-1,2,3-triazole ureas as potent, selective, and in vivo-active inhibitors of α/β-hydrolase domain containing 6 (ABHD6)” (J Med Chem, 2013).

What all share (settings): Neuro2a, 3 nM
Assay [1] deals with T1, Monoacylglycerol lipase ABHD6 (Mus musculus) (UniProt Q8R2Y0).
T1 sequence (whole entry): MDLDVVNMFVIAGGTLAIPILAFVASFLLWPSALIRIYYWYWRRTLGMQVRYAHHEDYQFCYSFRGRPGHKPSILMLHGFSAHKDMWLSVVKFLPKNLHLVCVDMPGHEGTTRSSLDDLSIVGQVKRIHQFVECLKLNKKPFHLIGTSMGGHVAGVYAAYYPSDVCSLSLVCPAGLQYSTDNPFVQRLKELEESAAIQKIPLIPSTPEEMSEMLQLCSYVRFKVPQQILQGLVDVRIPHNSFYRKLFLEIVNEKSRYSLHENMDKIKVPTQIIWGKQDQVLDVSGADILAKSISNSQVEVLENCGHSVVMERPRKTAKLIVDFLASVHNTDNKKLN

Assay [2] deals with T2, Platelet-activating factor acetylhydrolase IB subunit alpha2 (Mus musculus) (UniProt Q61206).
T2 sequence (whole entry): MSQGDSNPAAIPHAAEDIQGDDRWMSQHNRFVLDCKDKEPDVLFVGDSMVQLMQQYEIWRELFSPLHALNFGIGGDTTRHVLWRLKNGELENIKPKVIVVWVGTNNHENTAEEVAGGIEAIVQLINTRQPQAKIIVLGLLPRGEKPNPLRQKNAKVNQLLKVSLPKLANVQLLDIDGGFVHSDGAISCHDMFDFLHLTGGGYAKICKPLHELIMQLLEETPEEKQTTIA
Description: Inhibition of Pafah1b2 in mouse Neuro2a cells at 3 nM after 4 hrs by ABPP-SILAC assay

For assay [3], the target named is T3, Lon protease homolog, mitochondrial (Mus musculus) (UniProt Q8CGK3).
T3 sequence (whole entry): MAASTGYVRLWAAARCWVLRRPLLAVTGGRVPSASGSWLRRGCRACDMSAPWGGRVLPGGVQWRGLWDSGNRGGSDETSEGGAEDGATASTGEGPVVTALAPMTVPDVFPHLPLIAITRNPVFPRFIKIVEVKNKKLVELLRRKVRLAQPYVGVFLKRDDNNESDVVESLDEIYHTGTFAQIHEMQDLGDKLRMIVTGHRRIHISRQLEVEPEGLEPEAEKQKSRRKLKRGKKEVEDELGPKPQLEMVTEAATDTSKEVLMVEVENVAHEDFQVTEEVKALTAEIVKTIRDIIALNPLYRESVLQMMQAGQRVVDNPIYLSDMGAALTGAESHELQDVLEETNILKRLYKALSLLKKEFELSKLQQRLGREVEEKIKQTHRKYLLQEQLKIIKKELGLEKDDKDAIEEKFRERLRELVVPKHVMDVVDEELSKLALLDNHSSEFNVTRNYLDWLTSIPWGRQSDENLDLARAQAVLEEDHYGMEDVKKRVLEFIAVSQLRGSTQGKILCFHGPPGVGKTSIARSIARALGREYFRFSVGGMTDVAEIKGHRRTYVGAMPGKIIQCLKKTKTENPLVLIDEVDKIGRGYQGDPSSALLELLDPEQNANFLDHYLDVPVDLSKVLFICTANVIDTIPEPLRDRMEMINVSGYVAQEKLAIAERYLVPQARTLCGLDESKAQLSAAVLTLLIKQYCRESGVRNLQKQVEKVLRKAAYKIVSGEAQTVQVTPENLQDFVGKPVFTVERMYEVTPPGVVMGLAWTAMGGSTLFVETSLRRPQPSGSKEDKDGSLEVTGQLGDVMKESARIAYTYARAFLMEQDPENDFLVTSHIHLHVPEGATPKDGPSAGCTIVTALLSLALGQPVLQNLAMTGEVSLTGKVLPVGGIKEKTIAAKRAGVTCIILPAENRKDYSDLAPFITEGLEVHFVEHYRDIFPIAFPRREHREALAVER
Description: Inhibition of Lonp1 in mouse Neuro2a cells at 3 nM after 4 hrs by ABPP-SILAC assay

For assay [4], the target named is Serine hydrolase RBBP9 (Mus musculus) (UniProt O88851).
Description: Inhibition of Rbbp9 in mouse Neuro2a cells at 3 nM after 4 hrs by ABPP-SILAC assay
The target in assay [5] is T4, Glutamyl-tRNA(Gln) amidotransferase subunit A, mitochondrial (Mus musculus) (UniProt Q9CZN8).
T4 sequence (whole entry): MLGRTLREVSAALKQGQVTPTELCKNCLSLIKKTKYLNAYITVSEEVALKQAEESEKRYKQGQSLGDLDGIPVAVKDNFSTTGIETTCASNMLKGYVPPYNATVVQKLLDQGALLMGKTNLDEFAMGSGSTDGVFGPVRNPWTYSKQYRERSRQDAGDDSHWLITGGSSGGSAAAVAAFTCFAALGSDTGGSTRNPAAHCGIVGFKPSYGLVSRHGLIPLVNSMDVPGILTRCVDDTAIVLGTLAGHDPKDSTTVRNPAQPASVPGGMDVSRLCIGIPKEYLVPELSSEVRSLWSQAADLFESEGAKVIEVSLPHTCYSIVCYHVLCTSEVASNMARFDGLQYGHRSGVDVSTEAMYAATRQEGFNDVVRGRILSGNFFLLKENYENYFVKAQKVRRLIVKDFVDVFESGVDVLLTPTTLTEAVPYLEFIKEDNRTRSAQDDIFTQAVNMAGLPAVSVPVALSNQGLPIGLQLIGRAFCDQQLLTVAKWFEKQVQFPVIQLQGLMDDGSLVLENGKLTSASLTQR
Description: Inhibition of Qrsl1 in mouse Neuro2a cells at 3 nM after 4 hrs by ABPP-SILAC assay

The target of assay [6] is Patatin-like phospholipase domain-containing protein 7 (Mus musculus) (UniProt A2AJ88).
Description: Inhibition of Pnpla7 in mouse Neuro2a cells at 3 nM after 4 hrs by ABPP-SILAC assay
Assay [7] concerns the target T5, Rhomboid-related protein 4 (Mus musculus) (UniProt Q8BHC7).
T5 sequence (whole entry): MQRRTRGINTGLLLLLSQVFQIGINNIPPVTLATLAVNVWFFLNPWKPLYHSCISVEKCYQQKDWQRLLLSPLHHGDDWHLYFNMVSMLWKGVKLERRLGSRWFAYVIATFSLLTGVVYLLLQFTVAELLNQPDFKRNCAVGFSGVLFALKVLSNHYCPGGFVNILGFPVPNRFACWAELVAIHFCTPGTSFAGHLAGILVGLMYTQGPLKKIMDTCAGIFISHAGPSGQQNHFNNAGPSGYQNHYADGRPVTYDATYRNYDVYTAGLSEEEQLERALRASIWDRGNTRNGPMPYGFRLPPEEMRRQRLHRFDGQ
Description: Inhibition of Rhbdd1 in mouse Neuro2a cells at 3 nM after 4 hrs by ABPP-SILAC assay

Chain of Patatin-like phospholipase domain-containing protein 7 (Mus musculus) (A2AJ88 whole entry, the tested form may be a part): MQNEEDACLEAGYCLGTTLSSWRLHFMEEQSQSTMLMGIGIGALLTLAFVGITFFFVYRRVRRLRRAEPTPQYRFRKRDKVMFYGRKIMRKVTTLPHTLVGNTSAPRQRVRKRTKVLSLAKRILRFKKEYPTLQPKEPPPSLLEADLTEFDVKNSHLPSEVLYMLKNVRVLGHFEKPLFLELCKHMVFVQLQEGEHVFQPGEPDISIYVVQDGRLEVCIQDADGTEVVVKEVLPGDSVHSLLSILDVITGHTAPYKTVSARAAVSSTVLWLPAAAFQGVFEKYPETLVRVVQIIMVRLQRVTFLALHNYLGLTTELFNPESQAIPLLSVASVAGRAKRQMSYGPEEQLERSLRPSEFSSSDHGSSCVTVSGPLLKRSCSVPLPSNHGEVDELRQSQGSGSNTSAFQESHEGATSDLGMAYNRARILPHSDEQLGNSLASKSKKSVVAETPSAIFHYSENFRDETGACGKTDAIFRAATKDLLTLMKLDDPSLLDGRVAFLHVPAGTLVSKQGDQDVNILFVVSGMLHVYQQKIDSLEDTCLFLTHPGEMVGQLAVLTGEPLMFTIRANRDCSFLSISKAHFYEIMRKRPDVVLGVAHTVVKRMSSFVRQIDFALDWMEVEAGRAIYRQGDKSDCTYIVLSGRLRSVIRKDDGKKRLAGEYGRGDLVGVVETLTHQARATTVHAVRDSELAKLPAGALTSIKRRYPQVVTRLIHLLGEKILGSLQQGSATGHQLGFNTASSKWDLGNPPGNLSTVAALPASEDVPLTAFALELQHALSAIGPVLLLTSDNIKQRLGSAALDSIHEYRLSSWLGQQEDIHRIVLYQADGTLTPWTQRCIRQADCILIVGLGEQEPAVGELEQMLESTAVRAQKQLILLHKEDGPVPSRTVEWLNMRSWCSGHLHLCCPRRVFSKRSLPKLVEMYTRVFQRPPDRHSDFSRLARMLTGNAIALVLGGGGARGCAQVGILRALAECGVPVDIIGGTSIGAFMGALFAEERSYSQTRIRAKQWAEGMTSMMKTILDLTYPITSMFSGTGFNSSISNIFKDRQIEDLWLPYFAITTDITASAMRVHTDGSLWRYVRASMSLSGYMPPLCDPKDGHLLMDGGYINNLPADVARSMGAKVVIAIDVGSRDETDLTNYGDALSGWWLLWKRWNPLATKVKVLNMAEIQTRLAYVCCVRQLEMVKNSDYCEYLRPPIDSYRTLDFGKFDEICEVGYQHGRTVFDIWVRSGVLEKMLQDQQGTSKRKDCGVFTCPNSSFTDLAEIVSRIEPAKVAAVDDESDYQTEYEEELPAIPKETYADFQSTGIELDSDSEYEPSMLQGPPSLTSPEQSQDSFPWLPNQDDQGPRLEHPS
Chain of Serine hydrolase RBBP9 (Mus musculus) (O88851 whole entry): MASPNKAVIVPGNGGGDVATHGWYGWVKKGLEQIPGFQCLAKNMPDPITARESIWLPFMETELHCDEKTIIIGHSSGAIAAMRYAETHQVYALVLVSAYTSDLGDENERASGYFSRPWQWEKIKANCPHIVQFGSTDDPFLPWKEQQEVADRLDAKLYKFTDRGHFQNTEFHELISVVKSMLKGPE

For the compound `O=C(c1cccc(-c2ccc(-c3cn(C(=O)N4CCCCC4c4ccccc4)nn3)cc2)c1)N1CCCCC1` (racemic), the inhibition (in general, how much of the control response was suppressed) in assay [1] was > 80%; in assay [2], < 50%; in assay [3] it was < 50%; in assay [4], < 50%; in assay [5] it was < 50%; in assay [6], < 50%. The inhibition in assay [7] was < 50%.
`O=C(O)c1cccc(-c2ccc(-c3cn(C(=O)N4CCCCC4Cc4ccccc4)nn3)cc2)c1` (racemic): the inhibition was > 90% in assay [1]; < 50% in assay [2]; < 50% in assay [3]; < 50% in assay [4]; < 50% in assay [5]; < 50% in assay [6]. Also, the inhibition in assay [7] is < 50%.
As to `O=C(N1CCCCC1c1ccccc1)n1cc(-c2ccc(-c3cccc(CO)c3)cc2)nn1` (racemic), the inhibition is > 90% in assay [1]; < 50% in assay [2]; < 50% in assay [3]; < 50% in assay [4]; < 50% in assay [5]; < 50% in assay [6]. In addition, in assay [7], the inhibition was < 50%.
